In paper doi:10.1101/2025.03.25.645215v1 (biorxiv, 2025):

T1: B^0AT2/SLC6A15 (eGFP-hSLC6A15) (Homo sapiens, UniProt Q9H2J7)
T1 sequence (Q9H2J7 1-730): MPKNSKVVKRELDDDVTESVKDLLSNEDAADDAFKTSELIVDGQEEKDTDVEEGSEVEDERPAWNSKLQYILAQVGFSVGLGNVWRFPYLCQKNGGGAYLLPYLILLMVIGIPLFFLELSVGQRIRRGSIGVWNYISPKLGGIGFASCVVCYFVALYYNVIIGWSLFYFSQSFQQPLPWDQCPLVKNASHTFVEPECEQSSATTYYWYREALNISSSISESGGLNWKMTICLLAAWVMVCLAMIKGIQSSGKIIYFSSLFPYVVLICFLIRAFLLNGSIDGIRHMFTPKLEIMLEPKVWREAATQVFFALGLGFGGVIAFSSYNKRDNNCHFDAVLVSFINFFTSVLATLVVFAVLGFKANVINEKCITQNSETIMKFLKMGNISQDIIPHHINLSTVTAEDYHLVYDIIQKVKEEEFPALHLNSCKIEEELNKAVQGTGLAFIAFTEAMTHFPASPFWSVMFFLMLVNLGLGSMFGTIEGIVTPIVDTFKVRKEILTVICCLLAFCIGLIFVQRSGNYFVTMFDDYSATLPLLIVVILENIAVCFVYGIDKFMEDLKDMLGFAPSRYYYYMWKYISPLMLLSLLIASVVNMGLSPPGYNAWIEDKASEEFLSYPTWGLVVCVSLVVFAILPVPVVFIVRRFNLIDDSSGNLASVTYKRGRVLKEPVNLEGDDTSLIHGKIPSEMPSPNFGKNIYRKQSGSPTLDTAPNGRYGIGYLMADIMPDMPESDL

T2: B^0AT2/SLC6A15 (AAV mouse SLC6A15 in primary hippocampal neurons) (Mus musculus, UniProt Q8BG16)
T2 sequence (Q8BG16 1-729): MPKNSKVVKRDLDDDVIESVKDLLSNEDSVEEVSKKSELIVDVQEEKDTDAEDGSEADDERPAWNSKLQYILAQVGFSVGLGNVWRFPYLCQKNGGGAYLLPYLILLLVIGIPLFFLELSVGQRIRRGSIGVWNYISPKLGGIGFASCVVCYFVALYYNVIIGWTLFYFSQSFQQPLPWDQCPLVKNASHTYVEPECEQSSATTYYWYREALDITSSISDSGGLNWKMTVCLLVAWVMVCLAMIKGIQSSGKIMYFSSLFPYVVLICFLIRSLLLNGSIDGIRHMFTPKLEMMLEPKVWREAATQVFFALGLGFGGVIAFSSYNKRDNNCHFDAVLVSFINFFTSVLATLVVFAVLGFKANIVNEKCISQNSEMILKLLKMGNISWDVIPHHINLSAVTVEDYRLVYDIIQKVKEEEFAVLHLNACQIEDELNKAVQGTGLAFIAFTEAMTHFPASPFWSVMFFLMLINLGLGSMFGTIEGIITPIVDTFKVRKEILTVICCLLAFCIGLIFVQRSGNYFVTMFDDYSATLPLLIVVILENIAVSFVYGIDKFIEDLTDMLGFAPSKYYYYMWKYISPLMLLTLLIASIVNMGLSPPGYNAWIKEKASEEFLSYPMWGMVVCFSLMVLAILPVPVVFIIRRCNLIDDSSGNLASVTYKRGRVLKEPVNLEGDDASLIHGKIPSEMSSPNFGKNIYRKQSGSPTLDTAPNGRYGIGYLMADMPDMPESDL

B1: B^0AT2/SLC6A15 (eGFP-hSLC6A15) (Homo sapiens) (protein)
chain: MPKNSKVVKRELDDDVTESVKDLLSNEDAADDAFKTSELIVDGQEEKDTDVEEGSEVEDERPAWNSKLQYILAQVGFSVGLGNVWRFPYLCQKNGGGAYLLPYLILLMVIGIPLFFLELSVGQRIRRGSIGVWNYISPKLGGIGFASCVVCYFVALYYNVIIGWSLFYFSQSFQQPLPWDQCPLVKNASHTFVEPECEQSSATTYYWYREALNISSSISESGGLNWKMTICLLAAWVMVCLAMIKGIQSSGKIIYFSSLFPYVVLICFLIRAFLLNGSIDGIRHMFTPKLEIMLEPKVWREAATQVFFALGLGFGGVIAFSSYNKRDNNCHFDAVLVSFINFFTSVLATLVVFAVLGFKANVINEKCITQNSETIMKFLKMGNISQDIIPHHINLSTVTAEDYHLVYDIIQKVKEEEFPALHLNSCKIEEELNKAVQGTGLAFIAFTEAMTHFPASPFWSVMFFLMLVNLGLGSMFGTIEGIVTPIVDTFKVRKEILTVICCLLAFCIGLIFVQRSGNYFVTMFDDYSATLPLLIVVILENIAVCFVYGIDKFMEDLKDMLGFAPSRYYYYMWKYISPLMLLSLLIASVVNMGLSPPGYNAWIEDKASEEFLSYPTWGLVVCVSLVVFAILPVPVVFIVRRFNLIDDSSGNLASVTYKRGRVLKEPVNLEGDDTSLIHGKIPSEMPSPNFGKNIYRKQSGSPTLDTAPNGRYGIGYLMADIMPDMPESDL

How the values were obtained:
SERT (hSERT) = SERT (hSERT) (Homo sapiens, UniProt P31645); test: 3H-5HT uptake inhibition, HEK293, 384-well; type: cell-based
Sequence of SERT (hSERT) (P31645 whole entry): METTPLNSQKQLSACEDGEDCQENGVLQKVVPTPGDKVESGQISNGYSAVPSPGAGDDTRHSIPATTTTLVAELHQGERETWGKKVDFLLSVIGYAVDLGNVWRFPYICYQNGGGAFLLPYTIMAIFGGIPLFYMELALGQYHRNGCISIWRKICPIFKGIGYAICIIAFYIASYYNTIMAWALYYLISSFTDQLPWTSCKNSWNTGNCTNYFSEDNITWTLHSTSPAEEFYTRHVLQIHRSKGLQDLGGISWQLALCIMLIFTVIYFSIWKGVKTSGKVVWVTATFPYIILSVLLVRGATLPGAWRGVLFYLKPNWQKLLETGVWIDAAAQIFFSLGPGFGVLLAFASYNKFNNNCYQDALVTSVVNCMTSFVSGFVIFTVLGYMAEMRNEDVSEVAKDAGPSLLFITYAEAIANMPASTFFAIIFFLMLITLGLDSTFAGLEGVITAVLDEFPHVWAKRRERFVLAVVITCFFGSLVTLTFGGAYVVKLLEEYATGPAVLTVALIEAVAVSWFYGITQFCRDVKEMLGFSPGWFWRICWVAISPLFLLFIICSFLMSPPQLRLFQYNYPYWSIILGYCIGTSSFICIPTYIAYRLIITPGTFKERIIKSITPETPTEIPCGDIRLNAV

[1] = test system: NTT4/SLC6A17 (NTT4-B^0AT2 chimera); test: 3H-proline uptake inhibition, HEK293, 384-well; type: cell-based; settings: blanket statement for all 1,5-benzodiazepine analogs
GAT1 (hGAT1) = GAT1 (hGAT1) (Homo sapiens, UniProt P30531); test: 3H-GABA uptake inhibition, HEK293, 384-well; type: cell-based
Sequence of GAT1 (hGAT1) (P30531 whole entry): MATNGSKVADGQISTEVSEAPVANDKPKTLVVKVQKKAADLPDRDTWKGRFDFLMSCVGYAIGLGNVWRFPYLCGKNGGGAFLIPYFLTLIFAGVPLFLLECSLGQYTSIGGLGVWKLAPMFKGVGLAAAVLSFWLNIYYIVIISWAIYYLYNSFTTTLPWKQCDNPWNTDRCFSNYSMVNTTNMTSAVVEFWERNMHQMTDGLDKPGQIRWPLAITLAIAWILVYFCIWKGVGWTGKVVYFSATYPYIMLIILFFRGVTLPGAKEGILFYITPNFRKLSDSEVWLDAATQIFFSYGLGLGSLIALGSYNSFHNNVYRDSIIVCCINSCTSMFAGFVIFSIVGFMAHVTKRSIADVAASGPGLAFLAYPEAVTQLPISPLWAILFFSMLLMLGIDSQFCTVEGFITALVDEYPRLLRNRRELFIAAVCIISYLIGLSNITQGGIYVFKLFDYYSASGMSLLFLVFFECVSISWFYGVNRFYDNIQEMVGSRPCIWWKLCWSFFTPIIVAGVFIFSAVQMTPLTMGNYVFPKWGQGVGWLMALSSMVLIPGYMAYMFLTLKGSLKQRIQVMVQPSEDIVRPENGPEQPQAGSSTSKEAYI

[2] = molecular target: T1, B^0AT2/SLC6A15 (eGFP-hSLC6A15); test: cell-based; design: species or system HEK293 eGFP-hSLC6A15
[3] = molecular target: T1, B^0AT2/SLC6A15 (eGFP-hSLC6A15); test: cell-based; design: species or system HEK293 eGFP-hSLC6A15; remark: listed apart in the source
DAT (hDAT) = DAT (hDAT) (Homo sapiens, UniProt Q01959); test: 3H-dopamine uptake inhibition, HEK293, 384-well; type: cell-based
Sequence of DAT (hDAT) (Q01959 whole entry): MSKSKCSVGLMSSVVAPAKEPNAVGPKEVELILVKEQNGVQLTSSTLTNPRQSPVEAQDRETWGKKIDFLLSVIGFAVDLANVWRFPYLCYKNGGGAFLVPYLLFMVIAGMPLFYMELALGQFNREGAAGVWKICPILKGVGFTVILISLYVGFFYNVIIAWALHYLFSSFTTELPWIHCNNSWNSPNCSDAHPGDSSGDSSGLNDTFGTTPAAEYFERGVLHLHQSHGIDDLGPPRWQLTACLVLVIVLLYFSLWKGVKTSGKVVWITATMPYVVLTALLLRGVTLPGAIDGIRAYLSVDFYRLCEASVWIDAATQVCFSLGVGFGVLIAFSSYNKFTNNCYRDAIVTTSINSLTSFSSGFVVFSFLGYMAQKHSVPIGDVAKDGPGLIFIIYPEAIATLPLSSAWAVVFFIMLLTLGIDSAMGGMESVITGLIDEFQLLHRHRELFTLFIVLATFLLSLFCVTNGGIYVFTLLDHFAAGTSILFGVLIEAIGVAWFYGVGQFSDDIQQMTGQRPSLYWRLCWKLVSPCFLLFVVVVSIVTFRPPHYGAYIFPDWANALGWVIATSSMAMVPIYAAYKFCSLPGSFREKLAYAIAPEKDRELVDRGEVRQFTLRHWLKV

[4] = molecular target: T2, B^0AT2/SLC6A15 (AAV mouse SLC6A15 in primary hippocampal neurons); test: 3H-proline uptake inhibition, AAV-transduced primary hippocampal neurons; type: cell-based
[5] = molecular target: T1, B^0AT2/SLC6A15 (eGFP-hSLC6A15); test: cell-based; design: species or system HEK293 eGFP-hSLC6A15; remark: listed apart in the source
[6] = molecular target: T1, B^0AT2/SLC6A15 (eGFP-hSLC6A15); test: inhibition of 3H-proline uptake, HEK293; type: cell-based
[7] = molecular target: T1, B^0AT2/SLC6A15 (eGFP-hSLC6A15); test: inhibition of 3H-proline uptake by unlabelled proline, HEK293; type: cell-based
[8] = substrate: O=C(O)[C@@H]1CCCN1; test: cells, lysate or membranes; settings: labelled compound, pH 7.4, 120 mM Na+

Molecule | IC50 (SERT (hSERT)) | IC50 [1] | IC50 (GAT1 (hGAT1)) | IC50 [2] | further results
COc1cc(C2C3=C(CCCC3=O)Nc3ccccc3N2C(=O)c2ccccc2)ccc1O (stereo not shown) [10a] | > 80 µM | > 80 µM | > 80 µM | 0.93 ± 0.08 µM | –
COc1ccc(C2C3=C(CCCC3=O)Nc3ccccc3N2C(=O)c2ccccc2)cc1OC (stereo not shown) [10b] | – | – | – | 1.4 ± 0.2 µM | –
COc1ccc(C2C3=C(CCCC3=O)Nc3ccccc3N2C(=O)c2ccccc2)cc1 (stereo not shown) [10c] | – | – | – | 0.66 ± 0.07 µM | –
O=C1CCCC2=C1C(c1ccc(Cl)c(Cl)c1)N(C(=O)c1ccccc1)c1ccccc1N2 (stereo not shown) [10d] | – | – | – | 2.5 ± 0.4 µM | –
O=C1CCCC2=C1C(c1ccc(F)cc1)N(C(=O)c1ccccc1)c1ccccc1N2 (stereo not shown) [10e] | – | – | – | 2.9 ± 0.6 µM | –
O=C1CCCC2=C1C(c1ccccc1)N(C(=O)c1ccccc1)c1ccccc1N2 (stereo not shown) [10f] | – | – | – | 1.2 ± 0.2 µM | –
CC1(C)CC(=O)C2=C(C1)Nc1ccccc1N(C(=O)c1ccccc1)C2c1ccc(C(C)(C)C)cc1 (stereo not shown) [11n] | > 80 µM | > 80 µM | > 80 µM | – | IC50 [3]: > 80 µM
COc1cc(C2C3=C(CC(C)(C)CC3=O)Nc3ccccc3N2C(=O)c2ccccc2)ccc1O (stereo not shown) [11v] | > 80 µM | > 80 µM | > 80 µM | – | IC50 [3]: 0.24 ± 0.02 µM
CC1(C)CC(=O)C2=C(C1)Nc1ccccc1N(C(=O)c1ccccc1)C2c1ccc2c(c1)OCO2 (stereo not shown) [11x] | > 80 µM | > 80 µM | > 80 µM | – | IC50 (DAT (hDAT)): > 80 µM; IC50 [3]: 0.8 ± 0.3 µM
COc1ccc(C2C3=C(CC(C)CC3=O)Nc3ccccc3N2C(=O)c2ccccc2)cc1 (stereo not shown) [14c] | > 80 µM | > 80 µM | > 80 µM | – | IC50 (DAT (hDAT)): > 80 µM; IC50 [4]: 1 ± 0.4 µM; IC50 [5]: 0.24 ± 0.05 µM
COc1ccc(C2C3=C(CC(c4ccco4)CC3=O)Nc3ccccc3N2C(=O)c2ccccc2)cc1 (stereo not shown) [14d] | > 80 µM | > 80 µM | > 80 µM | – | IC50 (DAT (hDAT)): > 80 µM; IC50 [5]: 0.49 ± 0.03 µM
COc1ccc(C2C3=C(CC(c4ccc(OC)c(OC)c4)CC3=O)Nc3ccccc3N2C(=O)c2ccccc2)cc1 (stereo not shown) [14f] | > 80 µM | > 80 µM | > 80 µM | – | IC50 [5]: > 80 µM
CC(C)C[C@H](N)C(=O)O [leucine] | – | – | – | – | IC50 [6]: 210 ± 30 µM
O=C(O)[C@@H]1CCCN1 [proline] | – | – | – | – | IC50 [7]: 257 ± 53 µM
B1 | – | – | – | – | Km [8]: 960 ± 51 µM
